Measured values as given in patent publication US9102675B2, “3-Cyanoaryl-1H-pyrrolo[2,3-B] pyridine derivatives” (MERCK PATENT GMBH, priority 2011, dated 2015).
Read-outs that look alike come from different tables or passages of the source.

Legend:
[1] = target: T1, TANK binding kinase (TBK1) (Homo sapiens, UniProt Q9UHD2); test: TBK1 enzyme assay (384-well flashplate kinase assay); assay type: biochemical; conditions: 10 μM ATP, 0.6 nM TBK1
T1 sequence (Q9UHD2 1-729): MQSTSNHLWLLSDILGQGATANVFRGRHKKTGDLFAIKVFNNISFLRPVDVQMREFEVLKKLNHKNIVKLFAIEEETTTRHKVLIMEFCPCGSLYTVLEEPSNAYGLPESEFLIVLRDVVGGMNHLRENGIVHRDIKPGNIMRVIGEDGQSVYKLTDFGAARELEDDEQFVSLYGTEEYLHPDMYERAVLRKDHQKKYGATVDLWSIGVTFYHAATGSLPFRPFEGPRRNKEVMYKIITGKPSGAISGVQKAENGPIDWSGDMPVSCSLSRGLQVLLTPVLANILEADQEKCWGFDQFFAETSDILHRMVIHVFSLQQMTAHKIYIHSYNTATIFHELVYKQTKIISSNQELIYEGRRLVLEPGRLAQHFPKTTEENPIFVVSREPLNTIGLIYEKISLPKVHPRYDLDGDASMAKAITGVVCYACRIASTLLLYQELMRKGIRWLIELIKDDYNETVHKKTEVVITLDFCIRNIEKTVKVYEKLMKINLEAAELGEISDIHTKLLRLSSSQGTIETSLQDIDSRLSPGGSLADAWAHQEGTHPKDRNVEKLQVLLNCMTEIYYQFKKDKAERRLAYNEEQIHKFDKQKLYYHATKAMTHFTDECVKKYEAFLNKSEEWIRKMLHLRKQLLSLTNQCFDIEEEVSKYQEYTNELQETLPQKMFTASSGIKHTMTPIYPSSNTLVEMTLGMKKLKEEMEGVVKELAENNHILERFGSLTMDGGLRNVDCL
Procedure: Test for the Inhibition of TBK1
The kinase assay is performed as 384-well flashplate assay (for example for Topcount measurement).
0.6 nM TANK binding kinase (TBK1), 800 nM biotinylated MELK-derived peptide (biotin-Ah-Ah-[…]) and 10 μM ATP (spiked with 0.25 μCi of ^33P-ATP/well) are incubated at 30° C. for 120 min in a total volume of 50 μl (10 mM MOPS, 10 mM Mg acetate, 0.1 mM EGTA, 1 mM DTT, 0.02% of Brij35, 0.1% of BSA, pH 7.5) with or without test compound. The reaction is stopped with 25 μl of 200 mM EDTA. After 30 min at room temperature, the liquid is removed, and each well is washed three times with 100 μl of 0.9% sodium chloride solution. Non-specific reaction is measured in the presence of 100 nM staurosporine. The radioactivity is measured in a Topcount (PerkinElmer). The results (for example IC50 values) are calculated using program tools provided by the IT Department (for example Assay-Explorer, Symyx). Cell Test

TBK1 + IKKε = TBK1 + IKKε cell assay: dose response inhibition of phospho-IRF3 @ Ser 386 in MDA-MB-468 cells after poly(I:C) stimulation; assay type: cell-based; conditions: nuclear phospho-IRF3 Ser386, read-out: TBK1 + IKKε cell assay IC50
Source text: Dose response inhibition of phospho-IRF3 @ Ser 386 cell/MDAMB468/INH/PHOS/IMAG/pIRF3
Although TBK1 and IKKε are mainly known as key substances in the innate immune response, recent findings have indicated a role for TBK1 and IKKε in Ras-induced oncogenic transformation. TBK1 was identified as RaIB effector in the Ras-like (RaI)-guanine nucleotide exchange factor (GEF) pathway that is required for Ras-induced transformation. TBK1 directly activates IRF3 which, on phosphorylation, homodimerises and translocates to the nucleus, where it activates processes associated with inflammation, immune regulation, cell survival and proliferation.
This assay has been developed in order to assess the efficacy/potency of TBK1/IKKε inhibitor compounds based on the immunocytochemical detection of nucleus-localised phospho-IRF3, a target directly downstream of TBK1. Treatment with polyinosine-polycytidylic acid (poly(I:C), a synthetic analogue of double-stranded RNA (dsRNA), a molecular pattern associated with viral infection and recognised by Toll-like receptor 3 (TLR3) is used to induce TBK1/IKKε activity and IRF3 phosphorylation at Ser386.
Day 1: MDA-MB-468 cells are detached using HyQ-Tase, counted and sown into a 384-well plate with TC surface and clear bottom in a density of 10,000 cells per well in a total volume of 35 μl of complete medium. Alternatively, the cells are sown directly from frozen glass vials.
Day 2: The cells are pre-treated with inhibitor compounds for 1 h prior to poly(I:C) stimulation. After incubation for 2 h with poly(I:C), the cells are fixed in (para)formaldehyde (PFA) and permeabilised using methanol (MeOH). The cells are then blocked and incubated with an anti-pIRF3 antibody at 4° C. overnight.
Day 3: The primary antibody is washed off, an AlexaFluor488-conjugated secondary antibody is added, the cells are contrast-stained with propidium iodide, followed by image acquisition on an IMX ultra-high content reader.
Plating medium=culture medium: • RPMI 1640, Invitrogen #31870 • 10% of FCS, Invitrogen #10270-106 • 2 mM Glutamax, Invitrogen #35050-038 • 1 mM sodium pyruvate, Invitrogen #11360 • 1% of Pen/Strep • 37° C., 5% of CO2
Plates: 384-well bottom cell culture plates with black/clear bottom, Falcon #35 3962 or Greiner #781090
Subcultivation: HyQ-Tase, Thermo Scientific (HyClone) # SV30030.01
Poly(I:C) (LMW), Invitrogen # tlrl-picw (prepare 20 mg/ml stock solution in sterile PBS, denature 30 min 55° C. in a water bath, slowly cool to RT, store at −20° C. in aliquots)
a 10-point dose-response curve with MSC2119074A-4=BX-795 is included in each experiment
Formaldehyde (methanol-free, 16%, ultrapure EM grade), Polysciences #18814 (storage RT), final conc.: 4%
Goat serum, PAA # B15-035 (storage 4° C., long term −20° C.), final conc.: 10%
BSA (IgG- and protease-free, 30%), US-Biological # A1317 (storage 4° C., long term −20° C.), final conc.: 2%
Tween 20 detergent, Calbiochem #655204 (storage RT), (prepare 10% stock solution in water; final conc.: 0.1%)
Anti-pIRF-3 rabbit mAb, Epitomics #2526-B (storage −20° C.), final conc.: 1:2000 in PBS/2% of BSA
Alexa Fluor goat-anti-rabbit-488, Invitrogen # A11034 or # A11008 (storage 4° C., dark), final conc.: 1:2000 in PBS/2% of BSA/0.1% of Tween
Propidium iodide (PI), Fluka #81845, 1 mg/ml in H2O (storage 4° C., dark), final conc.: 0.2 μg/ml
(1) Sow 10,000 cells/well/35μof complete RPMI +10% FCS into 384-well bottom cell culture plates with black / clear bottom,
(2) Incubate for 2 h at room temperature on the bench, followed by further incubation for 22 h at 37° C., 5% of CO2 and 90% RH. […]

[2] = Homo sapiens, MDA-MB-468, MDA-MB-468 cells

IC50 [1] | IC50 (TBK1 + IKKε; [2]) | IC50 (TBK1 + IKKε; MDA-MB-468 cells) | Structure (SMILES)
< 300 nM | 300 to 3000 nM | – | Cn1cc(-c2cnc3[nH]cc(-c4ccc(OC5CCOCC5)c(C#N)c4)c3c2)cn1 [Compound A4, 5-[5-(1-methylpyrazol-4-yl)-1H-pyrrolo[2,3-b]pyridin-3-yl]-2-tetrahydropyran-4-yloxybenzonitrile]
< 300 nM | 3000 to 50000 nM | – | N#Cc1cc(-c2c[nH]c3ncc(-c4cnn(C5COC5)c4)cc23)ccc1OC1COC1 [Compound A34, 2-(oxetan-3-yloxy)-5-[5-(1-oxetan-3-yl-1H-pyrazol-4-yl)-1H-pyrrolo-[2,3-b]pyridin-3-yl]benzonitrile]
< 300 nM | 3000 to 50000 nM | – | CN1CCC(Oc2ccc(-c3c[nH]c4ncc(-c5cnn(C)c5)cc34)cc2C#N)CC1 [Compound A13, 2-(1-methylpiperidin-4-yloxy)-5-[5-(1-methyl-1H-pyrazol-4-yl)-1H-pyrrolo[2,3-b]pyridin-3-yl]benzonitrile]
< 300 nM | 3000 to 50000 nM | – | N#Cc1cc(-c2c[nH]c3ncccc23)ccc1OC1CCOCC1 [Compound A1, 5-(1H-pyrrolo[2,3-b]pyridin-3-yl)-2-tetrahydropyran-4-yloxybenzonitrile]
< 300 nM | 300 to 3000 nM | – | N#Cc1cc(-c2c[nH]c3ncc(-c4cnn(C5CCNCC5)c4)cc23)cnc1OC1CCOCC1 [Compound A18, 5-[5-[1-(4-piperidyl)pyrazol-4-yl]-1H-pyrrolo[2,3-b]pyridin-3-yl]-2-tetrahydropyran-4-yloxypyridine-3-carbonitrile]
< 300 nM | 300 to 3000 nM | – | Cn1cc(-c2cnc3[nH]cc(-c4cnc(OC5CCOCC5)c(C#N)c4)c3c2)cn1 [Compound A30, 5-[5-(1-Methylpyrazol-4-yl)-1H-pyrrolo[2,3-b]pyridin-3-yl]-2-tetrahydropyran-4-yloxypyridine-3-carbonitrile]
300 to 3000 nM | 3000 to 50000 nM | – | CN1CCN(c2cnc3[nH]cc(-c4ccc(OC5CCOCC5)c(C#N)c4)c3c2)CC1 [Compound A17, 5-[5-(4-methylpiperazin-1-yl)-1H-pyrrolo[2,3-b]pyridin-3-yl]-2-tetrahydropyran-4-yloxybenzonitrile]
< 300 nM | < 300 nM | – | N#Cc1cc(-c2c[nH]c3ncc(-c4cnn(CCO)c4)cc23)ccc1OC1CCOCC1 [Compound A15, 5-[5-[1-(2-hydroxyethyl)pyrazol-4-yl]-1H-pyrrolo[2,3-b]pyridin-3-yl]-2-tetrahydropyran-4-yloxybenzonitrile]
< 300 nM | – | 300 to 3000 nM | N#Cc1cc(-c2c[nH]c3ncc(-c4cn(C5CCNCC5)nn4)cc23)ccc1OC1CCOCC1 [Compound A22, 5-[5-[1-(4-piperidyl)triazol-4-yl]-1H-pyrrolo[2,3-b]pyridin-3-yl]-2-tetrahydropyran-4-yloxybenzonitrile]

The remaining lines, values behind:

Structure (SMILES) | IC50 [1] | IC50 (TBK1 + IKKε; [2]) | IC50 (TBK1 + IKKε; MDA-MB-468 cells)
CN1CCC(n2cc(-c3cnc4[nH]cc(-c5ccc(OC6CCOCC6)c(C#N)c5)c4c3)nn2)CC1 [Compound A23, 5-[5-[1-(1-methyl-4-piperidyl)triazol-4-yl]-1H-pyrrolo[2,3-b]pyridin-3-yl]-2-tetrahydropyran-4-yloxybenzonitrile] | < 300 nM | – | 300 to 3000 nM
CN1CCC(n2cc(-c3cnc4[nH]cc(-c5ccc(OC6CCOCC6)c(C#N)c5)c4c3)cn2)CC1 [Compound A16, 5-[5-[1-(1-methyl-4-piperidyl)pyrazol-4-yl]-1H-pyrrolo[2,3-b]pyridin-3-yl]-2-tetrahydropyran-4-yloxybenzonitrile] | < 300 nM | < 300 nM | –
N#Cc1cc(-c2c[nH]c3ncc(-c4cnn(C5CCNCC5)c4)cc23)ccc1OC1CCOCC1 [Compound A12, 5-[5-(1-piperidin-4-yl-1H-pyrazol-4-yl)-1H-pyrrolo[2,3-b]pyridin-3-yl]-2-(tetrahydropyran-4-yloxy)benzonitrile] | < 300 nM | 300 to 3000 nM | –
CC1(COc2ccc(-c3c[nH]c4ncc(-c5cnn(C6CCNCC6)c5)cc34)cc2C#N)COC1 [Compound A24, 2-[(3-Methyloxetan-3-yl)methoxy]-5-[5-[1-(4-piperidyl)pyrazol-4-yl]-1H-pyrrolo[2,3-b]pyridin-3-yl]-benzonitrile] | < 300 nM | 300 to 3000 nM | –
N#Cc1cc(-c2c[nH]c3ncc(-c4cn(CCN5CCCC5)nn4)cc23)ccc1OC1CCOCC1 [Compound A27, 5-[5-[1-(2-Pyrrolidin-1-ylethyl)triazol-4-yl]-1H-pyrrolo-[2,3-b]pyridin-3-yl]-2-tetrahydropyran-4-yloxybenzo-nitrile] | < 300 nM | 300 to 3000 nM | –
N#Cc1cc(-c2c[nH]c3ncc(OCCN4CCOCC4)cc23)ccc1OC1CCOCC1 [Compound A21, 5-[5-(2-morpholinoethoxy)-1H-pyrrolo[2,3-b]pyridin-3-yl]-2-tetrahydropyran-4-yloxybenzonitrile] | < 300 nM | 300 to 3000 nM | –
CC1(COc2ccc(-c3c[nH]c4ncc(-c5cn[nH]c5)cc34)cc2C#N)COC1 [Compound A36, 2-(3-methyloxetan-3-ylmethoxy)-5-[5-(1H-pyrazol-4-yl)-1H-pyrrolo[2,3-b]pyridin-3-yl]benzonitrile] | < 300 nM | 3000 to 50000 nM | –
N#Cc1cc(-c2c[nH]c3ncc(-c4cnn(C5COC5)c4)cc23)cnc1OC1CCOCC1 [Compound A37, 5-[5-(1-Oxetan-3-yl-1H-pyrazol-4-yl)-1H-pyrrolo-[2,3-b]pyridin-3-yl]-2-(tetrahydropyran-4-yloxy)-nicotinonitrile] | < 300 nM | 3000 to 50000 nM | –
